Assay results reported in US9115092B2, “Substituted quinazoline and pyrido-pyrimidine derivatives” (Asana Biosciences, LLC, priority 2010, dated 2015).

Key:
pS6RP in PC3 tumor = test: In vivo PK/PD study, PC3 tumor bearing mice, pS6RP; details: Mus musculus
Experimental: PC3 cells were cultured at 37° C. in a 5% CO2 incubator using Hams F12 K medium. Ten million (10^7) cells were injected subcutaneously to the right flank region of athymic male mice (Harlan, age: 6-7 weeks, weight: about 20 g). Tumor bearing mice were randomized when the tumor volume reached about 250 mm^3 and three mice were used per each time point. Test compounds of formula (I) were formulated in 40% HPCD in 1×PBS, pH 7.4 and dosed orally at 50 mg/kg single dose (dose volume−10 mL/kg). Plasma and tumor samples were collected at 0 (vehicle control animals), 1, 4 and 24 hours post dosing. Blood was drawn (retro orbital) to a tube containing 0.2% EDTA for plasma collection. The tumor was excised from the mouse and immediately frozen in liquid nitrogen for PD analysis. Tumor and plasma drug concentrations were measured for PK analysis using LC-MS.
Snap frozen tumor samples were pulverized in a mortar (Belart) containing liquid nitrogen and tumor powder was stored at −80° C. until analysis. Pre coated ELISA kits (Cell Signaling Technology; pAKT(T308), CST#7135; pAKT(5473), CST#7134 and pS6RP, CST#7205) were used for PD analysis. Tumor powder was transferred to Eppendorf® tubes and lysis buffer (1 mL) was added to the powder. Protease and phosphatase inhibitors (SIGMA) and phenylmethanesulfonylfluoride (PMSF) were added to tumor powder and mixed by vortexing followed by sonication (15 sec). Samples were kept on an ice bath for 30 min. Supernatant was separated after centrifugation at 10,000 rpm for 20 min at 4° C. Supernatant was re-centrifuged and fresh supernatant was aliquoted to different tubes. Total protein was estimated using a BCA kit (Thermo Scientific) and 50 μg total protein was loaded to each well. ELISA analysis was carried out as per manufacturer's instructions. The detection for pAKT was based on chemiluminescence and pS6RP was based on absorbance. Qualitative assessments of the suppression of pAKT(T308), pAKT(5473), and pS6RP were also carried out by standard Western blot analyses.
For example, the compound of Example 1, at 50 mg/kg po, caused about 50% inhibition of pAkt(5473) at 1 and 4 hours and >50% inhibition of pS6RP at 1, 4 and 24 hours. Also, the compound of Example 2, at 50 mg/kg po, caused about 25-30% inhibition of pAkt(5473) at 4 and 24 hours and >50% inhibition of pS6RP at 1, 4 and 24 hours. The compound of example 51, at 30 mg/kg po, caused >50% inhibition of pS6RP at 2, 4 and 24 hours. Also, the compounds of examples 133, 146, 147, and 228, at 50 mg/kg po, each caused >50% inhibition of pS6RP at 3 and 8 hours.

PI3 kinase isoform β = PI3 kinase isoform β (Homo sapiens, UniProt P42338); test: PI3 Kinase TR-FRET assay, isoform β; type: biochemical; details: read-out: inhibition of PI3 kinase isoform β, IC50
Experimental: (§1) The ability of compounds of the invention to inhibit PI3K activity was determined in a homogeneous TR-FRET assay using a PI3K assay kit (Millipore, USA; cat #33-016) according to manufacturer's instructions. PI3-Kinases (isoforms α, β, γ and δ) catalyze the phosphorylation of phosphatidylinositol, PIP2 to PIP3 in the presence of ATP and Mg^2+. The PIP3 product is detected by displacement of biotin-PIP3 from an energy transfer complex consisting of Europium labeled anti-GST monoclonal antibody, a GST-tagged PH domain, biotinylated PIP3 and Streptavidin-APC. Excitation of Europium in the complex results in an energy transfer to the APC and a fluorescence emission at 665 nm. The PIP3 product displaces biotin-PIP3 from the complex resulting in a loss of energy transfer and thus a decrease in signal.
(§2) To test for the ability of compounds to inhibit the activity of PI3Kα (wild-type), exemplary compounds of formula (I) were dissolved in DMSO and directly distributed into 384-well plates at a volume of 0.5 μL. 14.5 μL of P110/P85α/PIP2 mixture in buffer (obtained from the Millipore kit) containing MgCl2 (40 mM) and DTT (5 mM) was added to compound wells and incubated for 60 min at room temperature. P110/P85α was expressed in SF9 insect cells and purified nickel column extraction. Five ng of wild-type P110/P85α was used in the assay. The kinase reaction was started by the addition of ATP. The assay concentrations of both PIP2 and ATP were 10 μM. The reaction mixture was incubated for 30 min at room temperature and was terminated by the addition of stop mix and detection mix. Fluorescence was measured at 615 and 665 nm upon excitation at 340 nm in a Victor™ V5 fluorometer (Perkin Elmer, USA). The fluorescence emission ratio at 665 to 615 nm, proportional to the kinase activity, was plotted against the compound concentration to generate dose-response curves and IC50 values were determined using GraphPad Prism® 5 software.
The activity of PI3 kinase isoforms β, γ and δ were assayed in a similar manner to the assay protocol described above for PI3Kα, by substituting the appropriate p110/p85 isoform for the p110α/p85α. Compounds of formula (I) caused inhibition of PI3 kinase isoforms β, γ and δ as determined by these assays. For example, the compounds of examples 3, 51, 54, 111, 113, 115, and 253 each caused inhibition of PI3 kinase isoform β with IC50 values <50 nM. The compounds of examples 104, 133, 146 and 152 each caused inhibition of PI3 kinase isoform β with IC50 values <500 nM. The compounds of examples 3, 51, 54, 104, 111, 113, 115, 133, 253, and 152 each caused inhibition of PI3 kinase isoform γ with IC50 values <500 nM. […] The compounds of examples 2, 3, 51, 54, 111, 113, and 253 each caused inhibition of PI3 kinase isoform […] with IC50 values >1 μM.

PI3Kα mutation E545K = PI3Kα mutation E545K (Homo sapiens, UniProt P42336, E545K); test: PI3 Kinase TR-FRET assay, PI3Kα mutation E545K; type: biochemical; details: read-out: inhibition of PI3Kα mutation E545K, IC50
Experimental: as §1, §2
(§3) The activity of PI3Kα mutations H1047R and E545K were assayed in a similar manner to the assay protocol described above for PI3Kα (wild type). […]

PI3Kα mutation H1047R = PI3Kα mutation H1047R (Homo sapiens, UniProt P42336, H1047R); test: PI3 Kinase TR-FRET assay, PI3Kα mutation H1047R; type: biochemical; details: read-out: inhibition of PI3Kα mutation H1047R, IC50
Experimental: as §1, §2, §3

[1] = 50 mg/kg po single dose, at 1, 4 and 24 hours

Sequence of PI3Kα mutation H1047R (P42336 whole entry H1047R): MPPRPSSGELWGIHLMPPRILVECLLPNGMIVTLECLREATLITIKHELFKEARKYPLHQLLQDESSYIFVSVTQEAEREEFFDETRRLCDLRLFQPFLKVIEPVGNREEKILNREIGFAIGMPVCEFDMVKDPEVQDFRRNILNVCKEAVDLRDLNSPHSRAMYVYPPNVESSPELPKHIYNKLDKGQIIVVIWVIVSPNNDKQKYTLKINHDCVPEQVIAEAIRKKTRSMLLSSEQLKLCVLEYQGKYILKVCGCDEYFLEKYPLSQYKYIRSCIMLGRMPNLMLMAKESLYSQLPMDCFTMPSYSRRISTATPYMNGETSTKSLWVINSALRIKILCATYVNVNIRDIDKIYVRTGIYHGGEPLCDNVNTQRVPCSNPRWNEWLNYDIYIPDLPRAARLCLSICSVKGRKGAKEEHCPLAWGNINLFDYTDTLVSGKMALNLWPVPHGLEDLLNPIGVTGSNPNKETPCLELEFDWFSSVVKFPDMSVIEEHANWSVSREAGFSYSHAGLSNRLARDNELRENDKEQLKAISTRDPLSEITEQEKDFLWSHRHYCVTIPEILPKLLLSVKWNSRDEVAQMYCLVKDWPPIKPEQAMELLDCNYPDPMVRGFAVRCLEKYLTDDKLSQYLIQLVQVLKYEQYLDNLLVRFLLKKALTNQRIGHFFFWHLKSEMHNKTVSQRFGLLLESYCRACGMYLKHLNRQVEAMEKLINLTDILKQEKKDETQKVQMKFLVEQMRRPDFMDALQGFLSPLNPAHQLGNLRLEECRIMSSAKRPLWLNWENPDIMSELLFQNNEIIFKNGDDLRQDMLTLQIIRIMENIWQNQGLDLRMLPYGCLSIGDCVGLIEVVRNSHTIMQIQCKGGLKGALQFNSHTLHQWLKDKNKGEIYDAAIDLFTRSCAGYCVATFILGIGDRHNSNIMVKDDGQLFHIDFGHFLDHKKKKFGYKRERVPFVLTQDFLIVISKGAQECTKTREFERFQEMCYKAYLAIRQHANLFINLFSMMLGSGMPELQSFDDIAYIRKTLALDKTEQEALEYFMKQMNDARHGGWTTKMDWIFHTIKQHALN
Sequence of PI3Kα mutation H1047R (P27986 whole entry partner): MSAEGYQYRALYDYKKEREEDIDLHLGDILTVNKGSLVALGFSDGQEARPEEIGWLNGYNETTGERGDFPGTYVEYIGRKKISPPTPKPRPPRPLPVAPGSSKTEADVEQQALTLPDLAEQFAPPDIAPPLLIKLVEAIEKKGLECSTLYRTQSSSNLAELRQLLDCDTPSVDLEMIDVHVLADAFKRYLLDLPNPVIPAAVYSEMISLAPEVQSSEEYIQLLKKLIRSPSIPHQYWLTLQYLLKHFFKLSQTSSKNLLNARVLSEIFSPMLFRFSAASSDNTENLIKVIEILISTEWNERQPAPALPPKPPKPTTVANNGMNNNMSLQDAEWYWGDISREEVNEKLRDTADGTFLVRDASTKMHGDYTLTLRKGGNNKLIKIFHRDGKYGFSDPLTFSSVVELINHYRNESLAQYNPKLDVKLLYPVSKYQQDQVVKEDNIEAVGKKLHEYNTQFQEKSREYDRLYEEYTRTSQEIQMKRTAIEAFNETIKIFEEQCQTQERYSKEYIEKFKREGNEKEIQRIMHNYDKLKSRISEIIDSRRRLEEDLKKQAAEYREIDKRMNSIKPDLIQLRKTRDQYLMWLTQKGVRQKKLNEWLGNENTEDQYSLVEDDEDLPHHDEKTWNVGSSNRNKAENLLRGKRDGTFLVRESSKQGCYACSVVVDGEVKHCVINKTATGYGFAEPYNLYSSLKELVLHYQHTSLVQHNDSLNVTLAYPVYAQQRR
Sequence of PI3 kinase isoform β (P42338 whole entry, the tested form may be a part, canonical isoform): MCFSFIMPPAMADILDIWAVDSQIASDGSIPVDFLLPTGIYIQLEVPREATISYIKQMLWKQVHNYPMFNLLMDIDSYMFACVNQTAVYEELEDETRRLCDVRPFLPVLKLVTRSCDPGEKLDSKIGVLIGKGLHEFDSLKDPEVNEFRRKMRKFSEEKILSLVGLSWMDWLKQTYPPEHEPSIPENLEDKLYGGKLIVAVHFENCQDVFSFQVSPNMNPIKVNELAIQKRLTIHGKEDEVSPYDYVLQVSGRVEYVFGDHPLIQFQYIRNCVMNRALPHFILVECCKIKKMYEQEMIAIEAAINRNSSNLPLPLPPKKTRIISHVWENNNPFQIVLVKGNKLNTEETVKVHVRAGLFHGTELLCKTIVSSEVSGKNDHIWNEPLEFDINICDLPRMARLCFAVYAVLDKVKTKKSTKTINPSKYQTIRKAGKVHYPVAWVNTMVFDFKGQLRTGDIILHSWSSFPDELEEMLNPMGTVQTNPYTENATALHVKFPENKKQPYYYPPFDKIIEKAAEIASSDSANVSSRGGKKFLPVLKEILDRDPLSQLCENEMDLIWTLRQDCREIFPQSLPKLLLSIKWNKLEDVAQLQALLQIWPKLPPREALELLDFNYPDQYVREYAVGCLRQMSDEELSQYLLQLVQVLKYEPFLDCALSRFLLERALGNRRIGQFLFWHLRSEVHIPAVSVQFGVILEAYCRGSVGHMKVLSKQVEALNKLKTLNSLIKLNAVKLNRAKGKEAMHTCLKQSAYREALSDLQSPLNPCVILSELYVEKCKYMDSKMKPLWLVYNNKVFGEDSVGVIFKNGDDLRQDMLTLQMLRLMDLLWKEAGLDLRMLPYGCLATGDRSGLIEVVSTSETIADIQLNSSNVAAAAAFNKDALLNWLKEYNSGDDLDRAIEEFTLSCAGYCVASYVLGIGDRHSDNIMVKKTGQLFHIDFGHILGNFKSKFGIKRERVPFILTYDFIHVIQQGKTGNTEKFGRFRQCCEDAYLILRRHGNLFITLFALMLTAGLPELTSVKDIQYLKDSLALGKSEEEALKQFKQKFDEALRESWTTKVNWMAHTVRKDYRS
Sequence of PI3 kinase isoform β (P27986 whole entry partner, the tested form may be a part, canonical isoform): as the sequence (P27986 whole entry partner) above
Sequence of PI3Kα mutation E545K (P42336 whole entry E545K): as the sequence (P42336 whole entry H1047R) above, with E545K, R1047H counted along it
Sequence of PI3Kα mutation E545K (P27986 whole entry partner): as the sequence (P27986 whole entry partner) above

Structure (SMILES)	IC50 (PI3 kinase isoform β)	IC50 (PI3Kα mutation E545K)	IC50 (PI3Kα mutation H1047R)	inhibition at 50 mg/kg (pS6RP in PC3 tumor; [1])	inhibition at 30 mg/kg (pS6RP in PC3 tumor; 30 mg/kg po, at 2, 4 and 24 hours)	inhibition at 50 mg/kg (pS6RP in PC3 tumor; 50 mg/kg po, at 3 and 8 hours)
CN(C)C(=O)c1ccc(NC(=O)Nc2ccc(-c3nc(N4CCOCC4)c4ccc(-c5cncnc5)cc4n3)cc2)cc1 [Example 1, N,N-Dimethyl-4-(3-{4-[4-morpholin-4-yl-7-pyrimidin-5-yl-quinazolin-2-yl)-phenyl]-ureido}-benzamide]	–	–	–	> 50%	–	–
CN(C)C(=O)c1ccc(NC(=O)Nc2ccc(-c3nc(N4CCOCC4)c4ccc(-c5ccco5)cc4n3)cc2)cc1 [Example 51, 4-{3-[4-(7-furan-2-yl-4-morpholin-4-yl-quinazolin-2-yl)-phenyl]-ureido}-N,N-dimethyl-benzamide]	–	–	–	–	> 50%	–
CN(C)C(=O)c1ccc(NC(=O)Nc2ccc(-c3nc(N4CCOCC4)c4ccc(-c5cncnc5)cc4n3)cc2)c(F)c1 [Example 133, 3-fluoro-N,N-dimethyl-4-(3-(4-(4-morpholino-7-(pyrimidin-5-yl)quinazolin-2-yl)phenyl)ureido)-benzamide]	< 500 nM	< 500 nM	< 500 nM	–	–	> 50%

Continued, in another order:

IC50 (PI3 kinase isoform β)	IC50 (PI3Kα mutation E545K)	IC50 (PI3Kα mutation H1047R)	Structure (SMILES)	inhibition at 50 mg/kg (pS6RP in PC3 tumor; [1])	inhibition at 30 mg/kg (pS6RP in PC3 tumor; 30 mg/kg po, at 2, 4 and 24 hours)	inhibition at 50 mg/kg (pS6RP in PC3 tumor; 50 mg/kg po, at 3 and 8 hours)
< 1000 nM	–	–	Cc1ccc(-c2ccc3c(N4CCOCC4)nc(-c4ccc(NC(=O)Nc5ccc(C(=O)N(C)C)cc5)cc4)nc3c2)o1 [Example 2, N,N-Dimethyl-4-(3-{4-[7-(5-methyl-furan-2-yl)-4-morpholin-4-yl-quinazolin-2-yl]-phenyl}-ureido)-benzamide]	> 50%	–	–
< 500 nM	< 500 nM	< 500 nM	CN(C)C(=O)c1ccc(NC(=O)Nc2ccc(-c3nc(N4CCOCC4)c4ccc(-c5cccnc5F)cc4n3)cc2)c(F)c1 [Example 146, 3-fluoro-4-(3-(4-(7-(2-fluoropyridin-3-yl)-4-morpholino-quinazolin-2-yl)phenyl)ureido)-N,N-dimethyl-benzamide]	–	–	> 50%
< 500 nM	< 500 nM	< 500 nM	CN(C)C(=O)c1ccc(NC(=O)Nc2ccc(-c3nc(N4CCOCC4)c4ccc(-c5cccnc5)cc4n3)cc2)c(F)c1 [Example 152, 3-fluoro-N,N-dimethyl-4-(3-(4-(4-morpholino-7-(pyridin-3-yl)quinazolin-2-yl)phenyl)ureido)-benzamide]	–	–	–
